In general, IC50 refers to the midpoint of a concentration-inhibition curve.

Assay [1] can be described thus: Inhibition of asexual blood stage of Plasmodium falciparum 3D7 PKA assessed as inhibition of parasite proliferation after 72 hrs by Malstat assay.
Assay [2] can be described thus: Inhibition of asexual blood stage of chloroquine-resistant Plasmodium falciparum W2mef PKA assessed as inhibition of parasite proliferation after 72 hrs by Malstat assay.

`Cc1nc(NC2CCCCC2)c2ccccc2c1C#N`: the IC50 in assay [1] and in assay [2] was more than 50 µM throughout.

As to `CCCNc1nc(C)c(C#N)c2ccccc12`, the IC50 in assay [1] and in assay [2] was more than 50 µM throughout.

With `CCCCOc1nc(C)c(C#N)c2ccccc12`, the IC50 in assay [1] was 36 µM; in assay [2] it was 16 µM.

For the compound `CCCCNc1nc(C)c(C#N)c2ccccc12`, the IC50 in assay [1] worked out at 34 µM; in assay [2], 33 µM.

Turning to `Cc1nc(NC(C)(C)C)c2ccccc2c1C#N`, the IC50 turned out to be 5.2 µM in assay [1] and 4.2 µM in assay [2].

On to `Cc1nc(NCC(C)C)c2ccccc2c1C#N`, for which the figures for the IC50 in assay [1] and in assay [2] were more than 50 µM and 28 µM, respectively.

Take `CCCCNc1nc(C)c(C(N)=O)c2ccccc12`: in assay [1], the IC50 is more than 50 µM.

Turning to `Cc1nc(N)c2ccccc2c1C#N`, the IC50 in assay [1] is 34 µM; in assay [2], 36 µM.

For the compound `CCNc1nc(C)c(C#N)c2ccccc12`, the IC50 in assay [1] and in assay [2] was more than 50 µM in each case.

Take `CCCCNc1nc(CC)c(C#N)c2ccccc12`: the IC50 in assay [1] came out at 25 µM; in assay [2], 22 µM.

Regarding `Cc1nc(NCc2ccccc2)c2ccccc2c1C#N`, the IC50 in assay [1] and in assay [2] was more than 50 µM each time.

For `CCCCCNc1nc(C)c(C#N)c2ccccc12`, the values for the IC50 in assay [1] and in assay [2] were 8.6 µM and 9.6 µM, respectively.

Source of the values: ChEMBL document CHEMBL3792329, “Exploration of 3-methylisoquinoline-4-carbonitriles as protein kinase A inhibitors of Plasmodium falciparum” (Bioorg Med Chem, 2016).
